Source: ChEMBL document CHEMBL1122286, “Heterocyclic oxyacetic acid diuretics: indazole, benzisothiazole, and benzisothiazole 1,1-dioxide analogues of [[7-chloro-3-(2-fluorophenyl)-1,2-benzisoxazol-6-yl]oxy]acetic acid” (1983)

Tests used:
Format in all cases: functional, Urine
[1] = test system: Mus musculus; test: Compound was tested for diuretic activity after oral administration of 64 mg/kg in saline-loaded mice (vehicle control value=0.68)
[2] = test system: Mus musculus; test: Compound was tested for diuretic activity after oral administration of 64 mg/kg in saline-loaded mice (vehicle control value=0.05)
[3] = test system: Mus musculus; test: Compound was tested for diuretic activity after oral administration of 64 mg/kg in saline-loaded mice vehicle control value=0.25)
[4] = test system: Mus musculus; test: Compound was tested for diuretic activity after oral administration of 64 mg/kg in saline-loaded mice (vehicle control value=0.6)
[5] = test system: Mus musculus; test: Compound was tested for diuretic activity per os in saline-loaded mice at 64 mg/kg. (vehicle control value=1.22)
[6] = test system: Mus musculus; test: Compound was tested for diuretic activity after oral administration of 64 mg/kg in saline-loaded mice (vehicle control value=0.1)
[7] = test system: Mus musculus; test: Compound was tested for diuretic activity after oral administration of 64 mg/kg in saline-loaded mice (vehicle control value=0.8)
[8] = test system: Mus musculus; test: Compound was tested for diuretic activity after oral administration of 64 mg/kg in saline-loaded mice (vehicle control value=0.42)
[9] = test system: Mus musculus; test: Compound was tested for diuretic activity after oral administration of 64 mg/kg in saline-loaded mice (vehicle control value=0.3)
[10] = test system: Mus musculus; test: Compound was tested for diuretic activity after oral administration of 64 mg/kg in saline-loaded mice (vehicle control value=0.56)
[11] = test system: Mus musculus; test: Compound was tested for diuretic activity after oral administration of 64 mg/kg in saline-loaded mice vehicle control value=0.72)
[12] = test system: Mus musculus; test: Compound was tested for diuretic activity after oral administration of 64 mg/kg in saline-loaded mice (vehicle control value=0.27)
[13] = test system: Mus musculus; test: Compound was tested for diuretic activity after oral administration of 64 mg/kg in saline-loaded mice (vehicle control value=0.2)

`Cn1nc(-c2ccccc2Cl)c2ccc(OCC(=O)O)c(Cl)c21` gave a Diuretic activity [1] of 2.29 m equiv [Na+] 5hr-1kg-1.
In the case of `O=C(O)COc1ccc2c(-c3ccccc3F)noc2c1Cl`, the Diuretic activity [2] is reported as 10 m equiv [Na+] 5hr-1kg-1.
`O=C(O)COc1ccc2c(-c3ccccc3F)nsc2c1Cl` gave a Diuretic activity [3] of 4.59 m equiv [Na+] 5hr-1kg-1.
Molecule `O=C(O)COc1ccc2c(-c3ccccc3Cl)noc2c1Cl` has a Diuretic activity [4] of 9.1 m equiv [Na+] 5hr-1kg-1.
For `O=C(O)COc1ccc2c(-c3ccccc3)nsc2c1Cl`, the Diuretic activity [5] was 2.28 (m equiv [Na+]) 5hr-1 kg-1.
In the case of `O=C(O)COc1ccc(C(=O)c2cccs2)c(Cl)c1Cl` [TICRYNAFEN], the Diuretic activity [6] is reported as 3.31 m equiv [Na+] 5hr-1kg-1.
In the case of `O=C(O)COc1ccc2c(c1Cl)S(=O)(=O)N=C2c1ccccc1F`, the Diuretic activity [7] is reported as 0.18 m equiv [Na+] 5hr-1kg-1.
`Cn1nc(-c2ccc(OCC(=O)O)c(Cl)c2Cl)c2ccccc21` was tested, and the Diuretic activity [8] was 0.61 m equiv [Na+] 5hr-1kg-1.
`O=C(O)COc1ccc(C2=NS(=O)(=O)c3ccccc32)c(Cl)c1Cl` gave a Diuretic activity [7] of 2.03 m equiv [Na+] 5hr-1kg-1.
For `C=C(CC)C(=O)c1ccc(OCC(=O)O)c(Cl)c1Cl` [ETHACRYNIC ACID], the Diuretic activity [9] was 4.14 (m equiv [Na+]) kg-1.
With `O=C(O)COc1ccc(-c2[nH]nc3ccccc23)c(Cl)c1Cl` the Diuretic activity [10] was 0.65 m equiv [Na+] 5hr-1kg-1.
`O=C(O)COc1ccc(-c2nsc3ccccc23)c(Cl)c1Cl` was tested, and the Diuretic activity [11] was 1.18 m equiv [Na+] 5hr-1kg-1.
`O=C(O)COc1ccc2c(-c3ccccc3F)[nH]nc2c1Cl` showed a Diuretic activity [12] of 0.45 m equiv [Na+] 5hr-1kg-1.
`CC1(c2ccccc2)Cc2cc(OCC(=O)O)c(Cl)c(Cl)c2C1=O` (centres undefined) [INDACRINONE] was tested, and the Diuretic activity [13] was 7.6 m equiv [Na+] 5hr-1kg-1.
